Columns and labels:
[1] = target: CK1ε (Homo sapiens, UniProt P49674); assay: CK1ε inhibition (IC50); format: biochemical
[2] = test system: RSV; assay: 5 day model of RSV infection, treatments from day 1; format: in vivo, mice; details: administered from day 1
[3] = target: T1, ALK5 (Homo sapiens, UniProt P36897); assay: ALK5 inhibition (IC50); format: biochemical
T1 sequence (P36897 34-503): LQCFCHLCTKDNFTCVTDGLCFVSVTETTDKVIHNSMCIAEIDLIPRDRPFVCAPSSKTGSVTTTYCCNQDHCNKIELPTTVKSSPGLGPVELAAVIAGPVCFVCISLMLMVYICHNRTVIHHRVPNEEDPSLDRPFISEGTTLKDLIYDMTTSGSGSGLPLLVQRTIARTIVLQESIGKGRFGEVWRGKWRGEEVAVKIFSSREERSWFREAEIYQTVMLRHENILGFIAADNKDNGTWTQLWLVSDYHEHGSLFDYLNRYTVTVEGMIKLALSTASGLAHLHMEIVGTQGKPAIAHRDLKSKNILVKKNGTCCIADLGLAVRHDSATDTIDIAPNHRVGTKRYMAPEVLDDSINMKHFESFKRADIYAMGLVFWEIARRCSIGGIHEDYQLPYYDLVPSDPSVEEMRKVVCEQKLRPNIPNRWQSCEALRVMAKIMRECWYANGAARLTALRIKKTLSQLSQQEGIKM

[4] = test system: human lung fibroblasts; assay: bFGF/TGFβ proliferation of human lung fibroblasts (viable cell number); format: cell-based; details: 48 h
Text: Experiments described in the current Example and Example 14 involved culture of human parenchymal fibroblasts, measurement of their proliferation and gene expression response, the methods for which are detailed in Schuliga et al 2009 (Am J Respir Cell Mol Biol. 2009; 41(6):731-41). Interaction between TGFβ and bFGF in human lung fibroblasts. […] An interaction previously characterized in airway smooth muscle cultures is that TGFβ reduces the proliferative effects of bFGF. A similar finding is observed in human lung fibroblasts, whereby TGFβ reduces the bFGF mitogenic effects.

[5] = test system: glucocorticoid response element (GRE) activity; assay: GRE activity / GRE reporter in BEAS-2B cells; format: cell-based, human; details: BEAS-2B cells; RV16 0.1 or 1.0 MOI; SB431542 1 μM
Method: Data are presented as the means and SEM of 3 independent experiments. *P<0.05, cf corresponding Dex 30 nM response.
(§1) The methods used in Examples 1 to 5 (and 10, 19, 20) are similar to those reported in Salem et al 2012 (Br J Pharmacol. 166:2036-2048) and again in Keenan et al 2014 (Respiratory Research, e15:55) in which methods for cell culture, GRE assays and gene expression measurements are fully described. Additional methods for growth of respiratory syncytial virus (RSV) and rhinovirus (RV) are described in Collins et al 2007 (Respir Physiol Neurobiol. 2007 Jun. 15; 156(3):345-52.) and by Xatzipsalti and papdopoulos, 2007 (Contrib Microbiol. 2007; 14:33-41).

[6] = test system: GRE-dependent gene expression; assay: Glucocorticoid-induced gene expression in BEAS-2B cells; format: cell-based, human
Text: as §1
Data are presented as the means and SEM of 4 independent experiments. *P<0.05, cf corresponding Dex 30 nM response. […] Thus, TNFα contribution to glucocorticoid resistance, may be independent of TGFβ. The resistance is exemplified by the epithelial sodium channel alpha subunit SCNN1a which assembles into a Na channel that is thought to contribute to water reabsorption from the airspaces that are flooded during acute lung injury.
TGFβ suppression ranged in magnitude amongst the genes selected for analysis. […] TGFβ and Dex synergise in increasing the expression of PAI-1 (FIG. 24B).

[7] = human lung fibroblasts, PF4800567 1.0 μM
[8] = FIG. 6A, BEAS-2B, SB431542 1 μM, PF670462 10 μM

CK1ε, sequence (P49674 whole entry): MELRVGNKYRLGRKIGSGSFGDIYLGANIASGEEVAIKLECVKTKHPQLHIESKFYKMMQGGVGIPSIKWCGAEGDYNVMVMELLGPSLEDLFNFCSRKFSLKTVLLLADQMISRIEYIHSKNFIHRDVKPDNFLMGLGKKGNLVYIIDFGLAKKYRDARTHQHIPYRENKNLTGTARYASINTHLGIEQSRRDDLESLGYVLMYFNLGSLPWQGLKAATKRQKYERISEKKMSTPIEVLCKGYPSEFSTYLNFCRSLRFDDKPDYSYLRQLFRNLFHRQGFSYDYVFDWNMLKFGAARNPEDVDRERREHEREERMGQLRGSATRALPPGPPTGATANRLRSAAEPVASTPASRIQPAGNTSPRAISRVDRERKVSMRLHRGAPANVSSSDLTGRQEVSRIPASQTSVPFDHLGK

Row | SMILES | IC50 [1] | accumulation of inflammatory cells in the BAL fluid [2] | IC50 [3] | bFGF induced mitogenesis [4, 7] | bFGF induced mitogenesis in the presence of TGFβ [4, 7] | impairment of Dexamethasone 30 nM GRE responses by Rhinovirus (RV16) infection [5] | suppression of Dex (30 nM) gene expression response (SCNN1a) induced by IL-13/IL-4 ([6]; BEAS-2B cells, IL-13/IL-4 at 10 ng/ml, PF670462 1 or 10 μM, SB431542 1 μM) | impairment of Dexamethasone 30 nM GILZ gene expression responses by RV16 infection ([6]; BEAS-2B cells, RV16 1.0 MOI, pretreatment) | suppression of Dex (30 nM) gene expression response (SCNN1a) induced by the combination TNFα, IL-13 and IL-4 ([6]; BEAS-2B cells, each at 0.1 ng/ml, PF670462 1 or 10 μM, SB431542 1 μM) | TGFβ suppression of glucocorticoid-induced CDKN1C (p57kip2) expression ([6]; BEAS-2B, Dex 100 nM, PF670462 1-10 μM) | levels of GILZ in RV infected cells [6, 8] | levels of GILZ in uninfected cells [6, 8] | RV infection-induced decrease of Dex-induced GILZ expression ([6]; FIG. 6B, BEAS-2B, SB431542 3 μM, PF670462 3 μM) | effect of TGFβ on bFGF mitogenesis ([4]; human lung fibroblasts from donors without IPF, viable cell number)
1 | O=C(NC1CCOCC1)c1ccc(-c2cc(-c3c[nH]nc3-c3ccccn3)ccn2)cc1 [GW788388] | 18.6 µM | no activity | – | – | – | – | – | – | – | – | – | – | – | –
2 | Nc1ncnc2c1c(COc1cccc(Cl)c1)nn2C1CCOCC1 [PF4800567] | 0.011 µM | – | 4.13 µM | reduced | remained suppressed | – | – | – | – | – | – | – | – | –
3 | NC(=O)c1ccc(-c2nc(-c3ccc4c(c3)OCO4)c(-c3ccccn3)[nH]2)cc1 [SB431542] | – | – | – | – | – | prevented | some impact | greatly diminished | no detectable effect | completely blocked | increased | but not in uninfected cells | prevented | able to block
